The record followed here is ChEMBL document CHEMBL1157629, “Acetylcholinesterase inhibitors from the toadstool Cortinarius infractus” (Bioorg Med Chem, 2010).

Series [1] relates to SH-SY5Y. Put plainly: Cytotoxicity against human SH-SY5Y cells assessed as LDH release at 10 uM after 24 hrs. Format: cell-based. (Release of lactate dehydrogenase indicates damage to the cell membrane.)
Series [2] can be described thus: Inhibition of amyloid beta (1-40) self-aggregation at 25 uM by thioflavin T fluorescence assay.
In series [3] the test system is HepG2. Put plainly: Cytotoxicity against human HepG2 cells assessed as LDH release at 100 uM after 24 hrs. It counts as cell-based. To be noted: hepg2, 24 h.
Series [4] is described as follows: Cytotoxicity against human HepG2 cells assessed as cell viability at 100 uM after 24 hrs. Format: cell-based. To be noted: read-out: Activity.
The nature of series [5]: Cytotoxicity against human SH-SY5Y cells assessed as cell viability at 10 uM after 24 hrs. To be noted: read-out: Activity. Format: cell-based.
Series [6] can be described thus: Cytotoxicity against human SH-SY5Y cells assessed as cell viability at 100 uM after 24 hrs. Format: cell-based. To be noted: read-out: Activity.
Another series concerns the target T1, Acetylcholinesterase (Bos taurus, UniProt P23795).
T1 sequence (P23795 whole entry): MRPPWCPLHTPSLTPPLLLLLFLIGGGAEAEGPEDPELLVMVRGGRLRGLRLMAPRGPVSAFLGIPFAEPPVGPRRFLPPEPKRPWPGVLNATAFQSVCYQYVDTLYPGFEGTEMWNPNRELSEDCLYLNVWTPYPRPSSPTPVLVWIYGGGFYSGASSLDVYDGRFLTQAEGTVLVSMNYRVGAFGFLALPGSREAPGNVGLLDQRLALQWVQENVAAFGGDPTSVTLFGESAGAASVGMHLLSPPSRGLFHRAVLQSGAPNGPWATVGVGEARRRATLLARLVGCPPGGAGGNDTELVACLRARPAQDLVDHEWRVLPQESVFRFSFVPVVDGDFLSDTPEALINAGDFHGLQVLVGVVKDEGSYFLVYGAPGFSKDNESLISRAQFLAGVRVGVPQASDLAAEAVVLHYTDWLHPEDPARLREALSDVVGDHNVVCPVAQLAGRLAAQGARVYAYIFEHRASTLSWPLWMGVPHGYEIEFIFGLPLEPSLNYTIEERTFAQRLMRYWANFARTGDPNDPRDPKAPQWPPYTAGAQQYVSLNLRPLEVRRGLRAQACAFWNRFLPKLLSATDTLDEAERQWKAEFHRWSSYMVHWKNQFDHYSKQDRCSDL

The subject of series [7] is SH-SY5Y. Kind of series: Cytotoxicity against human SH-SY5Y cells assessed as LDH release at 100 uM after 24 hrs. It counts as cell-based.
Series [8] is described as follows: Cytotoxicity against human HepG2 cells assessed as cell viability at 10 uM after 24 hrs. It counts as cell-based. The following applies: read-out: Activity.
The test system of series [9] is HepG2. Kind of series: Cytotoxicity against human HepG2 cells assessed as LDH release at 10 uM after 24 hrs. It counts as cell-based. The following applies: hepg2, 24 h.
Series [10] has as its target Cholinesterase (Equus caballus) (UniProt P81908). Kind of series: Inhibition of equine serum BChE at 100 uM by Ellman's method. A general note: DTNB colorimetry detects thiols as they appear.

Molecules are shown by their SMILES. pIC50: −log10 of the molar value. Active and inactive are the calls of the source. No cut-off for these calls is given here.

Cholinesterase (Equus caballus), sequence (P81908 whole entry): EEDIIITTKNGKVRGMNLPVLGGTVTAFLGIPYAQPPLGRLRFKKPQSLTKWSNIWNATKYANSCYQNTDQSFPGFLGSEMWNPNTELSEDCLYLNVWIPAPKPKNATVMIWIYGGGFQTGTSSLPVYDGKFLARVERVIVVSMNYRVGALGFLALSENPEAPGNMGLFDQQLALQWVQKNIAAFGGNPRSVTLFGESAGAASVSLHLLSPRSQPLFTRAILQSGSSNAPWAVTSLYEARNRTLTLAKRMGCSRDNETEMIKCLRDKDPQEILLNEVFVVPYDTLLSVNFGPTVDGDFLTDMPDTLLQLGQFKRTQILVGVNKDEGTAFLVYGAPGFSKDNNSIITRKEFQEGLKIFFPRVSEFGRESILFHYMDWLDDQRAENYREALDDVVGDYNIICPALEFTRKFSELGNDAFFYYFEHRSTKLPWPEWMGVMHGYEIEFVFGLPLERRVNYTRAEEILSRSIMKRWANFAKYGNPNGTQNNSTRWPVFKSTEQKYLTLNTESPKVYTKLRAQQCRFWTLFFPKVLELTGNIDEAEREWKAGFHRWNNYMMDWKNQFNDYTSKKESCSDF
Description for Acetylcholinesterase: Inhibition of bovine AChE by Elman's method

A word on the inhibition: it is how much of the control response was suppressed. In general, pIC50 refers to the IC50 on a negative log10 scale, so that one unit is a factor of ten. `O=c1cc2c3c4c(cc[n+]3CCC2)c2cc(O)ccc2n14.[Cl-]`: the Activity is -1.86% in the series on SH-SY5Y [1], 0.56% in the series on HepG2 [3], 0.97% in the series on SH-SY5Y [7] and 0.13% in the series with HepG2 [9]. Besides, the inhibition result in [2] is “Active”. Further, the values for the viability at 24 h, 100 µM in series [4] and in series [6] were 101% and 98.3%, respectively. Moreover, the viability at 24 h, 10 µM stood at 96.7% in series [5] and 98.7% in series [8]. The pIC50 against Acetylcholinesterase was 4.90. The inhibition result in series [10] is “inactive”.
As to `O=c1cc2c3c4c(cc[n+]3CCC2)c2ccccc2n14.[Cl-]` [INFRACTOPICRIN], the Activity in the series with SH-SY5Y [1] is -0.07%; in the series with HepG2 [3], 1.48%; in the series with SH-SY5Y [7], 1.33%; in the series with HepG2 [9], 2.23%. This compound also showed an inhibition in [2] of 50%. In addition, the values for the viability at 24 h, 100 µM in [4] and in series [6] were 99.1% and 97.7%, respectively. In addition, the viability at 24 h, 10 µM in series [5] is 97.1%; in series [8] it was 100%. The compound further had a pIC50 against Acetylcholinesterase of 5.01. Moreover, the inhibition result in series [10] was “inactive”.
